Experimental data reported in the supplement of paper PMC11451515.

System: SEM cells
Assay: cell viability relative to DMSO control; higher = less cytotoxic
Details: 48 h
Summary of the method: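 NOMO1 or SEM cells were plated at 500 cells/well and P12-Ichikawa cells at 1000 cells/well in 1536-well plates (5 μl), after each leukemia line had been adapted for at least four passages in each medium. Pin dosing delivered library compounds in DMSO at 11 threefold concentrations, 47 μM to 0.79 nM. CellTiter-Glo One luminescence was read after 48 h at 37°C. Viability is reported as a per-plate percentage of DMSO wells, with cell-free wells as background.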

[1] = HPLM + 10% dialyzed FBS, 0.000781 µM
[2] = HPLM + 10% dialyzed FBS, 0.00234 µM
[3] = HPLM + 10% dialyzed FBS, 0.00702 µM
[4] = HPLM + 10% dialyzed FBS, 0.0211 µM
[5] = HPLM + 10% dialyzed FBS, 0.0632 µM
[6] = HPLM + 10% dialyzed FBS, 0.19 µM
[7] = HPLM + 10% dialyzed FBS, 0.569 µM
[8] = HPLM + 10% dialyzed FBS, 1.71 µM
[9] = HPLM + 10% dialyzed FBS, 5.12 µM
[10] = HPLM + 10% dialyzed FBS, 15.4 µM
[11] = HPLM + 10% dialyzed FBS, 46.1 µM
[12] = RPMI 5 mM glucose + 10% FBS, 0.000781 µM
[13] = RPMI 5 mM glucose + 10% FBS, 0.00234 µM
[14] = RPMI 5 mM glucose + 10% FBS, 0.00702 µM
[15] = RPMI 5 mM glucose + 10% FBS, 0.0211 µM
[16] = RPMI 5 mM glucose + 10% FBS, 0.0632 µM
[17] = RPMI 5 mM glucose + 10% FBS, 0.19 µM
[18] = RPMI 5 mM glucose + 10% FBS, 0.569 µM
[19] = RPMI 5 mM glucose + 10% FBS, 1.71 µM
[20] = RPMI 5 mM glucose + 10% FBS, 5.12 µM
[21] = RPMI 5 mM glucose + 10% FBS, 15.4 µM
[22] = RPMI 5 mM glucose + 10% FBS, 46.1 µM
[23] = RPMI 5 mM glucose + 10% dialyzed FBS, 0.000781 µM
[24] = RPMI 5 mM glucose + 10% dialyzed FBS, 0.00234 µM
[25] = RPMI 5 mM glucose + 10% dialyzed FBS, 0.00702 µM
[26] = RPMI 5 mM glucose + 10% dialyzed FBS, 0.0211 µM
[27] = RPMI 5 mM glucose + 10% dialyzed FBS, 0.0632 µM
[28] = RPMI 5 mM glucose + 10% dialyzed FBS, 0.19 µM
[29] = RPMI 5 mM glucose + 10% dialyzed FBS, 0.569 µM
[30] = RPMI 5 mM glucose + 10% dialyzed FBS, 1.71 µM
[31] = RPMI 5 mM glucose + 10% dialyzed FBS, 5.12 µM
[32] = RPMI 5 mM glucose + 10% dialyzed FBS, 15.4 µM
[33] = RPMI 5 mM glucose + 10% dialyzed FBS, 46.1 µM

| SMILES | cell viability [1] | cell viability [2] | cell viability [3] | cell viability [4] | cell viability [5] | cell viability [6] | cell viability [7] | cell viability [8] | cell viability [9] | cell viability [10] | cell viability [11] | cell viability [12] | cell viability [13] | cell viability [14] | cell viability [15] | cell viability [16] | cell viability [17] | cell viability [18] | cell viability [19] | cell viability [20] | cell viability [21] | cell viability [22] | cell viability [23] | cell viability [24] | cell viability [25] | cell viability [26] | cell viability [27] | cell viability [28] | cell viability [29] | cell viability [30] | cell viability [31] | cell viability [32] | cell viability [33] |
| --- | --- | --- | --- | --- | --- | --- | --- | --- | --- | --- | --- | --- | --- | --- | --- | --- | --- | --- | --- | --- | --- | --- | --- | --- | --- | --- | --- | --- | --- | --- | --- | --- | --- |
| CC(C)(C)C(=O)Oc1ccc2c(c1)nc(NC(=O)c1cccc([N+](=O)[O-])c1)n2CCCO | 107% | 122% | 118% | 119% | 110% | 120% | 110% | 104% | 102% | 88.5% | 93.2% | 130% | 120% | 118% | 112% | 117% | 126% | 114% | 95.7% | 97.5% | 105% | 118% | 121% | 138% | 122% | 116% | 108% | 121% | 101% | 81.1% | 107% | 106% | 128% |
| CC(C)n1c(/C=C/[C@H](O)C[C@H](O)CC(=O)O)c(-c2ccc(F)cc2)c2ccccc21 | 102% | 99.3% | 123% | 107% | 125% | 129% | 105% | 99.2% | 85% | 83.4% | 37.9% | 103% | 105% | 126% | 107% | 116% | 113% | 106% | 103% | 95.5% | 60.7% | 19% | 92.9% | 90.7% | 129% | 112% | 126% | 129% | 129% | 116% | 101% | 83.8% | 26.8% |
| CC(C)c1cnn2c(NCc3ccccc3)cc(N[C@@H](CO)[C@H](O)CO)nc12 | 117% | 140% | 120% | 119% | 142% | 136% | 79.9% | 9.33% | 5.66% | 4.28% | 1.69% |  |  |  |  |  |  |  |  |  |  |  | 121% | 134% | 121% | 123% | 120% | 121% | 80.7% | 8.71% | 5.19% | 3.66% | 1.44% |
| C[C@]12C[C@H](O)[C@H]3[C@@H](CC\C4=C\C(=O)\C=C/[C@]34C)[C@@H]1CC[C@]2(O)C(=O)CO | 113% | 112% | 119% | 118% | 129% | 118% | 98.6% | 102% | 44.8% | 67.2% | 22.6% | 118% | 115% | 114% | 143% | 123% | 127% | 107% | 90.1% | 40.9% | 64.9% | 19.6% |  |  |  |  |  |  |  |  |  |  |  |
